Target: MurQ-EC (MurNAc 6P hydrolase from Escherichia coli) (Escherichia coli, UniProt P76535)
Assay: coupled spectrophotometric assay of D-lactate release
Format: biochemical

MurQ-EC (MurNAc 6P hydrolase from Escherichia coli), sequence (P76535 whole entry): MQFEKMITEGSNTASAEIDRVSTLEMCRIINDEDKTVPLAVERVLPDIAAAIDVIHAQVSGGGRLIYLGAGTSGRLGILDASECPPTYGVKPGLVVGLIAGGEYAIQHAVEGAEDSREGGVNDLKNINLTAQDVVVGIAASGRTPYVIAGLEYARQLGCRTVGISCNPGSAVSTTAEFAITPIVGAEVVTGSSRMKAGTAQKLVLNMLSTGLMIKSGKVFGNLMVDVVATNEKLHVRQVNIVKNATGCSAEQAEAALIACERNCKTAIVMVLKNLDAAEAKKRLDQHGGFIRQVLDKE

SMILES: CC(=O)N[C@@H](CO)[C@@H](O)[C@H](O)[C@H](O)COP(=O)(O)O [compound 1]
- Ki: 1100 ± 300 µM

SMILES: CC(=O)N[C@@H](CO)[C@@H](O[C@H](C)C(=O)O)[C@H](O)[C@H](O)COP(=O)(O)O [compound 2]
- Ki: 230 ± 20 µM
